Source: US6833372B2, “Non-peptide GnRH agents, Pharmaceutical compositions, and methods for their use” (Pfizer, Inc., priority 2002, dated 2004)

target: T1, rat GnRH receptor (Rattus norvegicus, UniProt P30969); assay: Radioligand binding: inhibition of 125I-GnRH-A binding to rat GnRH receptor (rat pituitary membranes); details: read-out: Ki (nM), Inhibition Binding of 125I-GnRH-A to GnRH Receptors
T1 construct: or rat pituitaries (Pel Freez Biologicals, Rogers, Ark.) were homogenized; tissue Pel Freez Biologicals; host or cells: rat pituitaries (membrane preparation)
T1 sequence (P30969 1-327): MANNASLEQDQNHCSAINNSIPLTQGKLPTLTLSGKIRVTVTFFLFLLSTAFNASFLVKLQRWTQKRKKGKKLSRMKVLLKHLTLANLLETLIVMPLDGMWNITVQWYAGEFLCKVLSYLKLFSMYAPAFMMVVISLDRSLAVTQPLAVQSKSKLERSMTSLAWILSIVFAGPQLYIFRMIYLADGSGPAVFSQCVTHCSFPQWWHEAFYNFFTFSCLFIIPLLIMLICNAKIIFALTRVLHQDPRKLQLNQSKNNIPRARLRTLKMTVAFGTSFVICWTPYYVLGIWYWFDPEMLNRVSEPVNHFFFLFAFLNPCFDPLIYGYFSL
Experimental: (§1) HEK 293 cells containing mouse or human receptors, or rat pituitaries (Pel Freez Biologicals, Rogers, Ark.) were homogenized in buffer A containing: 50 mM Tris (pH 7.4), 0.32 M sucrose, 2 mM EGTA, 1 mM PMSF, 5 μg/ml aprotinen, 5 μg/ml Pepstatin A, and 1 μg/ml leupeptin. Homogenized cells were centrifuged at 4° C. at 20,000×g for 25 minutes, re-suspended in buffer A and re-centrifuged at 4° C. at 20,000×g for an additional 25 minutes. Total membrane protein was determined with a BCA kit (Pierce, Rockford, Ill.). Membranes were stored at −70° C. at a final membrane protein concentration of approximately 5 mg/ml.
(§2) The radioiodinated agonist analog of GnRH, [des-Gly^10,D-Ala^6]GnRH ethylamide (^125I-GnRH-A), was used as the radioligand. […] The reaction mixture was vortexed and incubated for 1 minute at room temperature. After one minute, the mixture was vortexed and allowed to incubate for an additional minute. 2 ml of 0.5 M acetic acid/1% BSA was added to the reaction tube and the mixture was added to a C18 Sep-Pak cartridge. The cartridge was washed with subsequent washes of 5 ml H2O and 5 ml 0.5 M acetic acid and then eluted with 5×1 ml of 60% CH3CN/40% 0.5 M acetic acid. The eluate was diluted with 3× volume of HPLC buffer A (0.1% TFA in H2O) and loaded onto a C18 column. The iodinated product was eluted over 20-25 min with a gradient of 25-100% CH3CN containing 0.1% TFA. The radioactive fractions (750 μl/fraction) were collected into clean polypropylene tubes containing 100 μl of 10% BSA. Fractions were assessed for biological activity by radioligand binding. Specific activity of the radioligand was approximately 2200 Ci/mmol.
(§3) Membranes were diluted to 0.01-0.5 mg/ml (depending upon the species of receptor) with assay buffer containing 50 mM HEPES (pH 7.4), 1 mM EDTA, 2.5 mM MgCl2, and 0.1% BSA. Membranes (diluted to utilize similar receptor numbers between assays) were incubated with approximately 0.04-0.06 nM ^125I-GnRH-A in the presence or absence of competing agents (0.1-10,000 nM) in a total volume of 200 μl in 96-well polypropylene plates for 1 hour at room temperature. Assays were stopped by rapid filtration onto 96-well GF/C filters soaked in 0.1% polyethylenimine (PEI) utilizing a Packard 96-well cell harvester. Filters were washed three times with ice-cold PBS (50 mM NaPO4, 0.9% NaCl, 2 mM MgCl2, and 0.02% NaN3, pH 7.4). 35 μl of scintillation cocktail was added to each filter well and filters were counted on a Packard Topcount. Control dose-response curves were generated to GnRH (0.1 nM-100 nM) in each competition binding experiment. Ki values were calculated from IC50 values according to Cheng et al., Biochemical Pharmacol. 22: 3099-3108, 1973. [formula]

| Ki [nM] | Structure (SMILES) |
| --- | --- |
| 15 | COc1nc(N(C)Cc2cccnc2)nc(OC)c1NC(=O)c1ccc(Cc2cc3c(cc2C)C(C)(C)OC3(C)C)o1 [Example D38, N-{4,6-Dimethoxy-2-[methyl(pyridin-3-ylmethyl)amino]pyrimidin-5-yl}-5-[(1,1,3,3,6-pentamethyl-1,3-dihydro-2-benzofuran-5-yl)methyl]-2-furamide] |
| 0.64 | COc1nc(NCCSCCO)nc(OC)c1NC(=O)c1ccc(Cc2cc3c(cc2C)C(C)(C)OC3(C)C)o1 [Example D42, N-[2-({2-[(2-Hydroxyethyl)thio]ethyl}amino)-4,6-dimethoxypyrimidin-5-yl]-5-[(1,1,3,3,6-pentamethyl-1,3-dihydro-2-benzofuran-5-yl)methyl]-2-furamide] |
| 0.32 | CNCCCNc1nc(OC)c(NC(=O)c2ccc(Cc3cc4c(cc3C)C(C)(C)OC4(C)C)o2)c(OC)n1 [Example D60, N-(4,6-Dimethoxy-2-{[3-(methylamino)propyl]amino}-5-pyrimidinyl)-5-[(1,1,3,3,6-pentamethyl-1,3-dihydro-2-benzofuran-5-yl)methyl]-2-furamide] |

target: T2, human GnRH receptors (Homo sapiens, UniProt P30968); assay: Radioligand binding: inhibition of 125I-GnRH-A binding to human GnRH receptor membranes; details: HEK 293 cell membranes
T2 construct: expressed in transfected cells; host or cells: HEK 293 cells, stably transfected; membranes
T2 sequence (P30968 1-328): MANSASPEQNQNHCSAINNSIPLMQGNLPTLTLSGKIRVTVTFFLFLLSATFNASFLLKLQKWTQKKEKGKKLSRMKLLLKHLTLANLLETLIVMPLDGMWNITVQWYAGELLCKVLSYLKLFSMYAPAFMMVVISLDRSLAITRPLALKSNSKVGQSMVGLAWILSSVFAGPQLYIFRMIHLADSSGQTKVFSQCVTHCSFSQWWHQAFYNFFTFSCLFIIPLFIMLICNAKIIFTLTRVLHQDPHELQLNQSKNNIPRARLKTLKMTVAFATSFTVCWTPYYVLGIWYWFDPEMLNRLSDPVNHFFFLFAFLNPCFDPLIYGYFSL
Experimental: HEK 293 cells stably transfected with mouse or human GnRH receptors as described above were grown in Dulbecco's high-glucose, modified Eagle's medium (DMEM) supplemented with 0.2% G418, 10% fetal bovine serum (FBS) and 100 U/mL penicillin/streptomycin. GH3 cells stably transfected with the rat GnRH receptor (GGH3) were provided by Dr. William Chin (Harvard Medical School, Boston, Mass.). These cells have been extensively characterized previously (Kaiser et al., 1997). The cells were grown in low glucose DMEM containing: 100U/mL penicillin/streptomycin, 0.6% G418 and 10% heat-inactivated FBS.
as §1, §2, §3

| Ki [nM] | Structure (SMILES) |
| --- | --- |
| 1.6 | COc1nc(NCCSCCO)nc(OC)c1NC(=O)c1ccc(Cc2cc3c(cc2C)C(C)(C)OC3(C)C)o1 [Example D42, N-[2-({2-[(2-Hydroxyethyl)thio]ethyl}amino)-4,6-dimethoxypyrimidin-5-yl]-5-[(1,1,3,3,6-pentamethyl-1,3-dihydro-2-benzofuran-5-yl)methyl]-2-furamide] |
| 1 | CNCCCNc1nc(OC)c(NC(=O)c2ccc(Cc3cc4c(cc3C)C(C)(C)OC4(C)C)o2)c(OC)n1 [Example D60, N-(4,6-Dimethoxy-2-{[3-(methylamino)propyl]amino}-5-pyrimidinyl)-5-[(1,1,3,3,6-pentamethyl-1,3-dihydro-2-benzofuran-5-yl)methyl]-2-furamide] |
| 202 | CCOC(=O)CN(Cc1ccccc1)c1nc(OC)c(NC(=O)c2ccc(Cc3cc4c(cc3C)C(C)(C)OC4(C)C)o2)c(OC)n1 [Example D51, Ethyl N-benzyl-N-[4,6-dimethoxy-5-({5-[(1,1,3,3,6-pentamethyl-1,3-dihydro-2-benzofuran-5-yl)methyl]-2-furoyl}amino)pyrimidin-2-yl]glycinate] |
| 200 | COc1nc(N(Cc2ccccn2)Cc2ccccn2)nc(OC)c1NC(=O)c1ccc(Cc2cc3c(cc2C)C(C)(C)OC3(C)C)o1 [Example D45, N-{2-[Bis(pyridin-2-ylmethyl)amino]-4,6-dimethoxy-pyrimidin-5-yl}-5-[(1,1,3,3,6-pentamethyl-1,3-dihydro-2-benzofuran-5-yl)methyl]-2-furamide] |
| 47 | COc1nc(NCCCN2CCN(C)CC2)nc(OC)c1NC(=O)c1ccc(Cc2c(C)cc3c(c2C)C(C)(C)CO3)o1 [Example H2, N-(4,6-Dimethoxy-2-{[3-(4-methylpiperazin-1-yl)propyl]amino}pyrimidin-5-yl)-5-[(3,3,4,6-tetramethyl-2,3-dihydro-1-benzofuran-5-yl)methyl]-2-furamide] |
| 19 | COc1nc(N2CCN(CCN3CCOCC3)CC2)nc(OC)c1NC(=O)c1ccc(Cc2cc3c(cc2C)C(C)(C)OC3(C)C)o1 [Example D46, N-{4,6-Dimethoxy-2-(4-(2-morpholin-4-ylethyl)piperazin-1-yl]pyrimidin-5-yl}-5-[(1,1,3,3,6-pentamethyl-1,3-dihydro-2-benzofuran-5-yl)methyl]-2-furamide] |
| 79 | COc1nc(N(CCN(C)C)Cc2ccc(F)cc2)nc(OC)c1NC(=O)c1ccc(Cc2cc3c(cc2C)C(C)(C)OC3(C)C)o1 [Example D47, N-{2-[[2-(Dimethylamino)ethyl](4-fluorobenzyl)amino]-4,6-dimethoxypyrimidin-5-yl}-5-[(1,1,3,3,6-pentamethyl-1,3-dihydro-2-benzofuran-5-yl)methyl]-2-furamide] |
| 260 | COc1ccccc1C1CCN(c2nc(OC)c(NC(=O)c3ccc(Cc4cc5c(cc4C)C(C)(C)OC5(C)C)o3)c(OC)n2)CC1 [Example D52, N-{4,6-Dimethoxy-2-[4-(2-methoxyphenyl)piperidin-1-yl]pyrimidin-5-yl}-5-[(1,1,3,3,6-pentamethyl-1,3-dihydro-2-benzofuran-5-yl)methyl]-2-furamide] |

Continued, molecule first:

| Structure (SMILES) | Ki [nM] |
| --- | --- |
| COc1nc(N(C)Cc2cccnc2)nc(OC)c1NC(=O)c1ccc(Cc2cc3c(cc2C)C(C)(C)OC3(C)C)o1 [Example D38, N-{4,6-Dimethoxy-2-[methyl(pyridin-3-ylmethyl)amino]pyrimidin-5-yl}-5-[(1,1,3,3,6-pentamethyl-1,3-dihydro-2-benzofuran-5-yl)methyl]-2-furamide] | 22 |
| COc1nc(N(C)CC(=O)O)nc(OC)c1NC(=O)c1ccc(Cc2cc3c(cc2C)C(C)(C)OC3(C)C)o1 [Example D27, N-[4,6-Dimethoxy-5-({5-[(1,1,3,3,6-pentamethyl-1,3-dihydro-2-benzofuran-5-yl)methyl]-2-furoyl}amino)pyrimidin-2-yl]-N-methylglycine] | 250 |
| COc1nc(N2CCC[C@H]2C(=O)OC(C)(C)C)nc(OC)c1NC(=O)c1ccc(Cc2cc3c(cc2C)C(C)(C)OC3(C)C)o1 [Example D24, tert-Butyl 1-[4,6-dimethoxy-5-({5-[(1,1,3,3,6-pentamethyl-1,3-dihydro-2-benzofuran-5-yl)methyl]-2-furoyl}amino)pyrimidin-2-yl]prolinate] | 360 |
| COc1nc(NCCNC2C3CC4CC(C3)CC2C4)nc(OC)c1NC(=O)c1ccc(Cc2cc3c(cc2C)C(C)(C)OC3(C)C)o1 (centres unmarked) [Example D35, N-(2-{[2-(2-Adamantylamino)ethyl]amino}-4,6-dimethoxypyrimidin-5-yl)-5-[(1,1,3,3,6-pentamethyl-1,3-dihydro-2-benzofuran-5-yl)methyl]-2-furamide] | 2.6 |
| COc1nc(N2CCN(CCC#N)CC2)nc(OC)c1NC(=O)c1ccc(Cc2cc3c(cc2C)C(C)(C)OC3(C)C)o1 [Example D26, N-{2-[4-(2-cyanoethyl)piperazin-1-yl]-4,6-dimethoxy-pyrimidin-5-yl}-5-[(1,1,3,3,6-pentamethyl-1,3-dihydro-2-benzofuran-5-yl)methyl]-2-furamide] | 84 |
| COc1nc(N(C)Cc2cccc(C)n2)nc(OC)c1NC(=O)c1ccc(Cc2cc3c(cc2C)C(C)(C)OC3(C)C)o1 [Example D29, N-(4,6-Dimethoxy-2-{methyl[(6-methylpyridin-2-yl)methyl]amino}pyrimidin-5-yl)-5-[(1,1,3,3,6-pentamethyl-1,3-dihydro-2-benzofuran-5-yl)methyl]-2-furamide] | 54 |
| COc1nc(NC2CCCCC2C2CCCCC2)nc(OC)c1NC(=O)c1ccc(Cc2cc3c(cc2C)C(C)(C)OC3(C)C)o1 (centres unmarked) [Example D31, N-{2-[1,1′-Bi(cyclohexyl)-2-ylamino]4,6-dimethoxy-pyrimidin-5-yl}-5-[(1,1,3,3,6-pentamethyl-1,3-dihydro-2-benzofuran-2-benofuran-5-yl)methyl]-2-furamide] | 6700 |
| COc1cc(CNc2nc(OC)c(NC(=O)c3ccc(Cc4cc5c(cc4C)C(C)(C)OC5(C)C)o3)c(OC)n2)cc(OC)c1OC [Example D34, N-{4,6-Dimethoxy-2-[(3,4,5-trimethoxybenzyl)amino]-pyrimidin-5-yl}-5-[(1,1,3,3,6-pentamethyl-1,3-dihydro-2-benzofuran-5-yl)methyl]-2-furamide] | 14 |
| COc1nc(N[C@@H]2CCC[C@H]2OCc2ccccc2)nc(OC)c1NC(=O)c1ccc(Cc2cc3c(cc2C)C(C)(C)OC3(C)C)o1 [Example D32, N-(2-{[(1R,2R)-2-(Benzyloxy)cyclopentyl]amino}-4,6-dimethoxypyrimidin-5-yl)-5-[(1,1,3,3,6-pentamethyl-1,3-dihydro-2-benzofuran-5-yl)methyl]-2-furamide] | 22 |
